In ChEMBL document CHEMBL1201862, “PubChem BioAssay data set” (2004):
Active and inactive are the calls of the source.

How the values were obtained:
[1] = molecular target: T1, Apoptotic protease-activating factor 1 (Homo sapiens, UniProt O14727); experiment: activation of Apaf-1 mediated apoptosis – fluorescent, uHTS hits, dose response (AID 588554); assay type: functional
T1 sequence (O14727 whole entry): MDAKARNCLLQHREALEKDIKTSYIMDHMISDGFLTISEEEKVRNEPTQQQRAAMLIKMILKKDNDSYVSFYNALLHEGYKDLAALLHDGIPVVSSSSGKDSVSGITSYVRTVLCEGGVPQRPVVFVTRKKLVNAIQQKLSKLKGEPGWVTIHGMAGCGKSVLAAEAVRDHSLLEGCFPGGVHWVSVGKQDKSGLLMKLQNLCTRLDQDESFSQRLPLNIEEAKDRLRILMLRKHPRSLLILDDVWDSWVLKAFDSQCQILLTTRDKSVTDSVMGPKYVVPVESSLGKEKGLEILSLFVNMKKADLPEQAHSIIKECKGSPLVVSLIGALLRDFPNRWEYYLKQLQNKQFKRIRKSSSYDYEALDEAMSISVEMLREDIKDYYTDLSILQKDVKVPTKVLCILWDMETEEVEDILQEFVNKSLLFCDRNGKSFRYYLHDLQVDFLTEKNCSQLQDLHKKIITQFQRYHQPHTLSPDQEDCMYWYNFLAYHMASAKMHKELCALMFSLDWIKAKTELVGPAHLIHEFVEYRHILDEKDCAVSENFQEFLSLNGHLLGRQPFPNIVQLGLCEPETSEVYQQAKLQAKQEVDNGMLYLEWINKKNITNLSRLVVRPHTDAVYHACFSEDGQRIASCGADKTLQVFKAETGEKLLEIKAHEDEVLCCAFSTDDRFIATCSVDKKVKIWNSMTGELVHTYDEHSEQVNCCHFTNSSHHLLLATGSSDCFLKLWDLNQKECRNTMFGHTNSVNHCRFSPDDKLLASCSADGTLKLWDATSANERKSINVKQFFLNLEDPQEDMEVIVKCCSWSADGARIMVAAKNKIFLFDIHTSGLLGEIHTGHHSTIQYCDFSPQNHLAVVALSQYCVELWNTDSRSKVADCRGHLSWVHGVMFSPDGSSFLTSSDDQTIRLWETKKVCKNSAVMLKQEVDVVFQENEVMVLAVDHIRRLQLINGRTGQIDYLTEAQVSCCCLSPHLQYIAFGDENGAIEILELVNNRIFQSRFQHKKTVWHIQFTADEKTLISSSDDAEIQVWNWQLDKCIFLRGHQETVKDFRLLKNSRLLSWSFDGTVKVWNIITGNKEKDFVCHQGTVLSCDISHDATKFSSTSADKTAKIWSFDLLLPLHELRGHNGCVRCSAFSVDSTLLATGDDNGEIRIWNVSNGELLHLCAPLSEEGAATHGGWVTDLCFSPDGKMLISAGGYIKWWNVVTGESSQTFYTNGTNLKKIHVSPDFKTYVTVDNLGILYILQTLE

[2] = molecular target: T2, Alkaline phosphatase, tissue-nonspecific isozyme (Homo sapiens, UniProt P05186); experiment: TNAP enzyme activators, dose response, selectivity assay for human IAP activator project, biochemical, TNAP isozyme, human IAP uHTS hits (AID 488886); assay type: functional;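 also: potency of compounds raising TNAP activity as a selectivity check on IAP activators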
T2 sequence (P05186 whole entry): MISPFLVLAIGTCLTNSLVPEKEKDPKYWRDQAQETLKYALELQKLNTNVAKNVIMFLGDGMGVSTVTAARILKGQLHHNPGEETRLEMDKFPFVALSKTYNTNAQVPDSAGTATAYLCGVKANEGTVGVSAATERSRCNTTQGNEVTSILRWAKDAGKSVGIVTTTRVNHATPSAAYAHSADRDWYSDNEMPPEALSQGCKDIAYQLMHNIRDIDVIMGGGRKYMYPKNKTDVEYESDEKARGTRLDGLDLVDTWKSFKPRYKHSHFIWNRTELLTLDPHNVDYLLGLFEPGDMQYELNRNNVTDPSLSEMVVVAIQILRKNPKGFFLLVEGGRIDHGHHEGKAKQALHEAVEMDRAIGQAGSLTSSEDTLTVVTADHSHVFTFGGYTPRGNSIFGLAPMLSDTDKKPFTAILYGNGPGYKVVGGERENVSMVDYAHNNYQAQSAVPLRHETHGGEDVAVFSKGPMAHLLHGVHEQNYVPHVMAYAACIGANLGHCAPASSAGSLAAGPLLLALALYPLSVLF

[3] = molecular target: T3, Intestinal-type alkaline phosphatase (Homo sapiens, UniProt P09923); experiment: human intestinal alkaline phosphatase activators, dose response, biochemical, luminescence, uHTS hits (AID 463120); assay type: functional
T3 sequence (P09923 whole entry): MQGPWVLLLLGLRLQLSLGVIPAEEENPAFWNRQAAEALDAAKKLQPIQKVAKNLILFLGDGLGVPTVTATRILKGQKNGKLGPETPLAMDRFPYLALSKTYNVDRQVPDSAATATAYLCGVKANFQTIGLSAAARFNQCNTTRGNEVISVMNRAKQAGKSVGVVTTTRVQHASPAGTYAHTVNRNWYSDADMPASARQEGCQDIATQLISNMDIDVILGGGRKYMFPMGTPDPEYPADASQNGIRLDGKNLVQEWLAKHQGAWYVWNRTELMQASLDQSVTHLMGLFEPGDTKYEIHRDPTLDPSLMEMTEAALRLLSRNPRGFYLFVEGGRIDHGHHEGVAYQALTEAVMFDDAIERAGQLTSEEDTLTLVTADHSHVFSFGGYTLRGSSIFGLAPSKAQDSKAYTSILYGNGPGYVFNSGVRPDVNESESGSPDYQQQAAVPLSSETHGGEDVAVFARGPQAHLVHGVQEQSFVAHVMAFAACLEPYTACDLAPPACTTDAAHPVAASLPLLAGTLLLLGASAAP

[4] = molecular target: Intestinal-type alkaline phosphatase (Mus musculus, UniProt P24822); experiment: PubChem AID 488875; assay type: functional
[5] = molecular target: T3, Intestinal-type alkaline phosphatase; experiment: human IAP activators, dose response, biochemical, luminescent, uHTS hits, set 2 (AID 488817); assay type: functional;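 also: potency of activators that raise enzyme activity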
Escherichia coli = experiment: microbe, parasite or virus in culture
[6] = molecular target: T4, Dual specificity protein phosphatase 6 (Rattus norvegicus, UniProt Q64346); assay type: functional
T4 sequence (Q64346 whole entry): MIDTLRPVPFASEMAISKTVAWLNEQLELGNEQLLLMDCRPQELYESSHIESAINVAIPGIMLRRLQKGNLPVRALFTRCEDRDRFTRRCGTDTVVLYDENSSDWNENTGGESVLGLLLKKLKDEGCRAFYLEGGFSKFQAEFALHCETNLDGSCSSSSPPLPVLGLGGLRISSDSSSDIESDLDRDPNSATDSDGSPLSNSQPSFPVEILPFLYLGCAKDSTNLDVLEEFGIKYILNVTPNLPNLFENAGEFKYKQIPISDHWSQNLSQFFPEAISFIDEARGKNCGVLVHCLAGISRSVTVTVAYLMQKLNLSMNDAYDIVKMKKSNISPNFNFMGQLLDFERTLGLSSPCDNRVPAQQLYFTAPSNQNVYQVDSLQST

[7] = molecular target: T5, Tyrosine-protein phosphatase non-receptor type 7 (Homo sapiens, UniProt P35236); assay type: functional
T5 sequence (P35236 whole entry): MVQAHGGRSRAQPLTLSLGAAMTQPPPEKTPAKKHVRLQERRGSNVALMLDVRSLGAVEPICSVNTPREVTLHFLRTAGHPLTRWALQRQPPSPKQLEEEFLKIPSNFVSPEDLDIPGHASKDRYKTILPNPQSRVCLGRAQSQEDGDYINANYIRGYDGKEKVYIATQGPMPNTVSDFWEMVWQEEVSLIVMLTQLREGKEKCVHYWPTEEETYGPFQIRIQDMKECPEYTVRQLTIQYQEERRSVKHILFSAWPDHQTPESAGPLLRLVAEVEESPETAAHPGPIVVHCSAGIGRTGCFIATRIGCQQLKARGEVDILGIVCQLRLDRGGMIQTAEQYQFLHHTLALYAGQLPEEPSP

[8] = molecular target: T4, Dual specificity protein phosphatase 6
[9] = molecular target: Glyceraldehyde-3-phosphate dehydrogenase (Homo sapiens, UniProt P04406)
Sequence of Glyceraldehyde-3-phosphate dehydrogenase (P04406 whole entry): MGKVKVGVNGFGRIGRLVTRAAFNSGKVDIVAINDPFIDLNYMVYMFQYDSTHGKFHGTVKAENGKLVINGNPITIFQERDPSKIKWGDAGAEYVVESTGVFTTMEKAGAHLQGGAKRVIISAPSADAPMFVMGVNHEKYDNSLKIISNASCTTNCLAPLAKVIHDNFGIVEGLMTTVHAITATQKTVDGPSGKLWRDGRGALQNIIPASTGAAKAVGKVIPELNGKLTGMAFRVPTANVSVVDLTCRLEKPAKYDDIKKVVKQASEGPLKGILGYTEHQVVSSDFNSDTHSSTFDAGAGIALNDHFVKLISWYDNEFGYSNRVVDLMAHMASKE

Cytochrome P450 2D6 = Cytochrome P450 2D6 (Homo sapiens, UniProt P10635);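 also: CYP2D6 member of a cytochrome P450 panel assay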
Cytochrome P450 1A2 = molecular target: T6, Cytochrome P450 1A2 (Homo sapiens, UniProt P05177);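 also: PubChem cytochrome P450 panel assay, CYP1A2 panel member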
T6 sequence (P05177 whole entry): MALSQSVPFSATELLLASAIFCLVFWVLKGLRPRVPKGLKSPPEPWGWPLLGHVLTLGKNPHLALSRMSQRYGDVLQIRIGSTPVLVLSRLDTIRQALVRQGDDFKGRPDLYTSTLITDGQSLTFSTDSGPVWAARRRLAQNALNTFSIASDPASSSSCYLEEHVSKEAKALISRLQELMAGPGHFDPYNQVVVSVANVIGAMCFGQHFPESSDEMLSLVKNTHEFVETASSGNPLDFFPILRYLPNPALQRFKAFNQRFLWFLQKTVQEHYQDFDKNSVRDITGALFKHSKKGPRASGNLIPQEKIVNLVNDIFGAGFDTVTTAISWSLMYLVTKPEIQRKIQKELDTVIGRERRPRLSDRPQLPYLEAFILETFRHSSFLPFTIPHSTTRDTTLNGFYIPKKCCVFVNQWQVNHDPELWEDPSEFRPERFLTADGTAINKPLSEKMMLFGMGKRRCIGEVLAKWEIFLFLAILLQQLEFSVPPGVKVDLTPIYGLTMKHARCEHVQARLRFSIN

Cytochrome P450 2C9 = Cytochrome P450 2C9 (Homo sapiens, UniProt P11712)
Sequence of Cytochrome P450 2C9 (P11712 whole entry): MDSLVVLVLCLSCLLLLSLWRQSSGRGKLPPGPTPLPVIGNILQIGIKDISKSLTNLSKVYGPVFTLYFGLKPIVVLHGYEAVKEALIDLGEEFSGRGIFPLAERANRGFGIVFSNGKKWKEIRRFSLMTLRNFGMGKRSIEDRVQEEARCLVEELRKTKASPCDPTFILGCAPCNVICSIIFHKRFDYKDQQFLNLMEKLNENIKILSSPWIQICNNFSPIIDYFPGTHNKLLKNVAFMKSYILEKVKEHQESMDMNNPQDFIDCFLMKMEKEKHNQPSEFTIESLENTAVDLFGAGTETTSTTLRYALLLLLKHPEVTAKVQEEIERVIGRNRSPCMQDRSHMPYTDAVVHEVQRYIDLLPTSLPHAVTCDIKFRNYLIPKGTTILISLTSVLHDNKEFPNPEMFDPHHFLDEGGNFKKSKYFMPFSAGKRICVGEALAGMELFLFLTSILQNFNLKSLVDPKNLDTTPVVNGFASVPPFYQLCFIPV

Cytochrome P450 2C19 = Cytochrome P450 2C19 (Homo sapiens, UniProt P33261); experiment: Cytochrome panel assay with activity outcomes. Panel member name: p450-cyp2c19 Compounds with AC50 equal or less than 10 uM are considered active; assay type: functional
[10] = Luminescence Cell-Based Dose Retest to Confirm Inhibitors of Cancer Stem Cells. [Related pubchem assays (depositor defined):AID2717, AID2721]; assay type: functional; conditions: Homo sapiens
[11] = cytotoxicity in HMLE control line with eGFP shRNA, dose response, counter-screen for HMLE_sh_ECad selective toxicity project, cell-based, HMLE_sh_eGFP, luminescence (AID 463074); assay type: functional, Homo sapiens;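 also: HMLE human mammary epithelial cells expressing control shRNA against eGFP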
[12] = molecular target: T7, Beta-adrenergic receptor kinase 1 (Homo sapiens, UniProt P25098); experiment: Inhibitors of aptamer binding to bead-bound beta-adrenergic receptor kinase 1 by flow cytometry, biochemical, cherry pick 2, EC50 (AID 504815)
T7 sequence (P25098 whole entry): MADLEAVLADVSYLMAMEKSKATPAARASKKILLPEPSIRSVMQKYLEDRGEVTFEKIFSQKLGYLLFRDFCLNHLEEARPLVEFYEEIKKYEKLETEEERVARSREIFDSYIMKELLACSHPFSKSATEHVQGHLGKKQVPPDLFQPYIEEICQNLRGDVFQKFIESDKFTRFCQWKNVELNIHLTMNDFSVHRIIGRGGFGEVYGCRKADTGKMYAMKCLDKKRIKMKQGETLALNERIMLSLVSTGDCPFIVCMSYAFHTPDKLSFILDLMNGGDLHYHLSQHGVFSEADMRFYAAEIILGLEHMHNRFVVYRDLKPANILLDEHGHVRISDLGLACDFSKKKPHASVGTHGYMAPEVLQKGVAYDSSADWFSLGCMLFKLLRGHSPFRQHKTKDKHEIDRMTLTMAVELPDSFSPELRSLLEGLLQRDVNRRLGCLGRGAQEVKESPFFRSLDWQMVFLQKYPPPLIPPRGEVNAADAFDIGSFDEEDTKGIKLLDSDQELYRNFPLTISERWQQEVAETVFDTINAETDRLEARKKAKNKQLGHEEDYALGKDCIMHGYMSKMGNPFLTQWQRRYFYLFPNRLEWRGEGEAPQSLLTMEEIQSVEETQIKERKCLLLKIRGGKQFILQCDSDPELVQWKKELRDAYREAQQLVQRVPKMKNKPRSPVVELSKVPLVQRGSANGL

[13] = molecular target: T8, Voltage-gated N-type calcium channel alpha-1B subunit/Amyloid beta A4 precursor protein-binding family A member 1 (Homo sapiens, UniProt Q00975+Q02410); assay type: protein assay
T8 sequence (Q00975 whole entry, the tested form may be a part): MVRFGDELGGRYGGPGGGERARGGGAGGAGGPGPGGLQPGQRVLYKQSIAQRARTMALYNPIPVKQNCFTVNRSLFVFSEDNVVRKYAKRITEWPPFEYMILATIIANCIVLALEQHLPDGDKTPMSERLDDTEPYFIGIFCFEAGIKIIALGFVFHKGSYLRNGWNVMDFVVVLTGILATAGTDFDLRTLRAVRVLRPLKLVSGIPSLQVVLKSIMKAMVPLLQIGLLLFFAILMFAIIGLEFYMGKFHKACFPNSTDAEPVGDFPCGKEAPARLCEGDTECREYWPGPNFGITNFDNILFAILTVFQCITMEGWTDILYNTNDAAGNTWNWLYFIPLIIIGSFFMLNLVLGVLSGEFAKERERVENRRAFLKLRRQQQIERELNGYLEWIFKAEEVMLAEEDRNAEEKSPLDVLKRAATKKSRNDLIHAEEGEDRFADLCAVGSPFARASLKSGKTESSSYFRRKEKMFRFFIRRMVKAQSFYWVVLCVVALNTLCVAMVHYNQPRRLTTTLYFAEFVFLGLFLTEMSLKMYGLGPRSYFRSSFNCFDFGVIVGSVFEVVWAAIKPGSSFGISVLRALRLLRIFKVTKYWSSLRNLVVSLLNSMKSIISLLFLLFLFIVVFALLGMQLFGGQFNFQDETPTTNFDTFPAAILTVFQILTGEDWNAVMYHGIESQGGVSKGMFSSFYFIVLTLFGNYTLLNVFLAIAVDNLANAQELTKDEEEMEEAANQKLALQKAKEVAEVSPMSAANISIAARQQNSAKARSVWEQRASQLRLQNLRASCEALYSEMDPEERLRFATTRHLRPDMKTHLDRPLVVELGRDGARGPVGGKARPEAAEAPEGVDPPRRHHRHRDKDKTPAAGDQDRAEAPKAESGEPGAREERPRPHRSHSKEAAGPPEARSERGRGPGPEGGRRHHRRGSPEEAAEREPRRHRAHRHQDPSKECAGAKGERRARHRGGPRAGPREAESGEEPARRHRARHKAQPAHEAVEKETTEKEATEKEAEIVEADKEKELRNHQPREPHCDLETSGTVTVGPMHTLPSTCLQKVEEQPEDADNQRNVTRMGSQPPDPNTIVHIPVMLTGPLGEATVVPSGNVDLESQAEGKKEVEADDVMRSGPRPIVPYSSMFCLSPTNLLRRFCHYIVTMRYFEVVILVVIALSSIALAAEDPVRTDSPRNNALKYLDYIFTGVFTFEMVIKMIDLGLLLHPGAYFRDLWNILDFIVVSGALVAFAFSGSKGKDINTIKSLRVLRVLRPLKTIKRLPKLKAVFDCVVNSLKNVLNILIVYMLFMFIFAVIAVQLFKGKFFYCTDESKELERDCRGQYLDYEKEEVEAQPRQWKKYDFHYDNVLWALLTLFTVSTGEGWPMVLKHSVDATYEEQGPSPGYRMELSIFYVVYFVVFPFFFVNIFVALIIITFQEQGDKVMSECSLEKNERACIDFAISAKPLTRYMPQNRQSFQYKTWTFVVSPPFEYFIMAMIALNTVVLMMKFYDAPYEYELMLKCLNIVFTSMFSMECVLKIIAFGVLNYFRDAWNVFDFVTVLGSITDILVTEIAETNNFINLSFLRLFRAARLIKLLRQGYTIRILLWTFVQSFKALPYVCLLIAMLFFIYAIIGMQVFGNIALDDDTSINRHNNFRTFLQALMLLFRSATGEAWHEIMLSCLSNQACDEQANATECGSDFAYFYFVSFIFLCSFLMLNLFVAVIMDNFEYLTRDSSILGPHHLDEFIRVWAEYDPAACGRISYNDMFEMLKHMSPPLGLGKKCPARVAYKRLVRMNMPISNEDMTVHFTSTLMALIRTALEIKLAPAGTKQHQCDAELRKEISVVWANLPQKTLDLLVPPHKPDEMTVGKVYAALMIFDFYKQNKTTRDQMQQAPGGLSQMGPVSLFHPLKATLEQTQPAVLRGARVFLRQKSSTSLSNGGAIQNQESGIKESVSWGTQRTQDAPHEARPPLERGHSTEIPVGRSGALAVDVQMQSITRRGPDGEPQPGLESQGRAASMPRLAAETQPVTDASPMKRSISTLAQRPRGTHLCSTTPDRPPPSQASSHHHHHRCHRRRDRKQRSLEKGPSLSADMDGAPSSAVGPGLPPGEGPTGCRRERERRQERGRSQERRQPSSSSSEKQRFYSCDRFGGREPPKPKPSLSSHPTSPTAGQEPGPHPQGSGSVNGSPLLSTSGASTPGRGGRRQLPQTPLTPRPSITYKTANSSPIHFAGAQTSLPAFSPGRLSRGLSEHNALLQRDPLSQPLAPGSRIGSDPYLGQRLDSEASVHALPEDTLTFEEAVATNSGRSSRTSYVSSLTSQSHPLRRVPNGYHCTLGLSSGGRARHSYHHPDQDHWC
T8 sequence (Q02410 whole entry, the tested form may be a part): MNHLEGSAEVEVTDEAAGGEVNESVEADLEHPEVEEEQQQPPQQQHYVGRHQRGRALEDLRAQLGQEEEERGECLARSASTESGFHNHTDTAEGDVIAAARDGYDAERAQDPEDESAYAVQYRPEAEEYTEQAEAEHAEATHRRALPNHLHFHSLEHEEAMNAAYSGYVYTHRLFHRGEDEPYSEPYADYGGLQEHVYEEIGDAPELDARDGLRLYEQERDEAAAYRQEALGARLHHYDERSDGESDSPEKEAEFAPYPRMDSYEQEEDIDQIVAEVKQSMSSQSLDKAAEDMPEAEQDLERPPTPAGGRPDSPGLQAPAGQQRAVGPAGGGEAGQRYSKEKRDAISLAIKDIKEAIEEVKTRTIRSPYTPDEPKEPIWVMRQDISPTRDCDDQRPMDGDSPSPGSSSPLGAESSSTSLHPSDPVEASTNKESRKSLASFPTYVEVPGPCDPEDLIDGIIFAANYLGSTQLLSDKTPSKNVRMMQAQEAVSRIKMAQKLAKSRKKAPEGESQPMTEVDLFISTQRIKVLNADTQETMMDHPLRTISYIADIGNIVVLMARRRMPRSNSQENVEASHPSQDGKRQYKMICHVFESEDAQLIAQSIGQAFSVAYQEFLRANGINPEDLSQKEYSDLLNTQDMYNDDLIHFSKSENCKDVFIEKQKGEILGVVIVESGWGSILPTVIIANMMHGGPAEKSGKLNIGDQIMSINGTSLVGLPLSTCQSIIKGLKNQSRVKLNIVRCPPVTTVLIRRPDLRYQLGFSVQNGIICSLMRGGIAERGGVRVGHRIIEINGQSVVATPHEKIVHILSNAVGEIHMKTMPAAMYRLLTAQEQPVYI

[14] = molecular target: T9, Carboxy-terminal domain RNA polymerase II polypeptide A small phosphatase 1 (Homo sapiens, UniProt Q9GZU7); experiment: inhibitors of CTDSP1, concentration-response testing, biochemical assay, absorbance-based, actives from ultra-high-throughput screening (AID 540297); assay type: functional
T9 sequence (Q9GZU7 whole entry): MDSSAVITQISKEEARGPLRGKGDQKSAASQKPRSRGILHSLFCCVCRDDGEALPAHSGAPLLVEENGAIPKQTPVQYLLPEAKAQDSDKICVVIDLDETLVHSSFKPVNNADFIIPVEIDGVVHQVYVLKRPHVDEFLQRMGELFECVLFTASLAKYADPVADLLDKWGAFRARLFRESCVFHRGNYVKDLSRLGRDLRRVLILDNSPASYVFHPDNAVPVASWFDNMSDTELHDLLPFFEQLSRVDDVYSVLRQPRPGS

[15] = molecular target: T10, Small ubiquitin-related modifier 1 (Homo sapiens, UniProt P63165); experiment: inhibitors of SUMO1 peptide binding, dose response, biochemical, fluorescence polarization, uHTS hits (AID 624382); assay type: functional; conditions: read-out: IC50_Mean
T10 sequence (P63165 whole entry): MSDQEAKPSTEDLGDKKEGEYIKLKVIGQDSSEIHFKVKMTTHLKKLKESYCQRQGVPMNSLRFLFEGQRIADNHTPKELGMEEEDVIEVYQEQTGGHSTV

[16] = molecular target: T10, Small ubiquitin-related modifier 1; experiment: inhibitors of SUMO1 partner interactions, dose response, biochemical, FRET (AID 624383); assay type: functional; conditions: read-out: IC50_Mean
[17] = molecular target: G-protein coupled receptor 35 (Homo sapiens, UniProt Q9HC97); experiment: GPR35 antagonists blocking zaprinast-driven arrestin recruitment, primary screen, imaging, U2OS, beta-arrestin-GFP, zaprinast agonist (AID 2058); assay type: functional;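 also: antagonist potency meaning inhibition of agonist-induced arrestin redistribution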
Sequence of G-protein coupled receptor 35 (Q9HC97 whole entry): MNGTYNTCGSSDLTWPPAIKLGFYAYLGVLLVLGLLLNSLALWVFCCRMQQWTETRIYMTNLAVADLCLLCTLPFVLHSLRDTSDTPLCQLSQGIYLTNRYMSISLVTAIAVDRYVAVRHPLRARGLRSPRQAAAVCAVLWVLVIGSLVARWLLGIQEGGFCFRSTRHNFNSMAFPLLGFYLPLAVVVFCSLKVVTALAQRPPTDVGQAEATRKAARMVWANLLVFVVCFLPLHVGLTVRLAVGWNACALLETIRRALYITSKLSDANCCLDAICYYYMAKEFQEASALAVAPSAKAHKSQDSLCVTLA

[18] = molecular target: T8, Voltage-gated N-type calcium channel alpha-1B subunit/Amyloid beta A4 precursor protein-binding family A member 1; assay type: protein assay; remark: listed apart in the source
[19] = molecular target: T7, Beta-adrenergic receptor kinase 1; experiment: GRK2 inhibitors displacing RNA aptamer, dose response, biochemical, flow cytometry beads, FAM-aptamer, powder set 1 (AID 588720)

Cc1cc(C)n(CC(C)C(=O)O)n1 (centres undefined)
EC50 [1]: 10.9 µM (active)

CC(C)(C)NC(=O)C(=O)NNC(=O)COc1ccccc1
EC50 [2]: 36.4 µM (active) | EC50 [3]: 28 µM (active) | EC50 [4]: > 100 µM (inactive) | EC50 [5]: 28.4 µM (active)

Cc1ccc(-n2nnnc2SCC(=O)Nc2ccc3c(c2)OCCO3)cc1C
AC50 (Escherichia coli): 30.9 µM (active)

O=c1nc(NCCc2ccccc2)[nH]c(=O)n1-c1ccccc1
IC50 [6]: > 100 µM (inactive) | IC50 [7]: > 100 µM (not active) | IC50 [8]: > 100 µM (inactive) | IC50 [9]: > 100 µM (not active)

O=C(c1cc(C(F)(F)F)cc(C(F)(F)F)c1)N1CCC2(CC1)CN(c1ncccn1)C2
AC50 (Cytochrome P450 2D6): inconclusive | AC50 (Cytochrome P450 1A2): inconclusive | AC50 (Cytochrome P450 2C9): inconclusive | AC50 (Cytochrome P450 2C19): inconclusive

O=C(CCS(=O)(=O)c1ccccc1)Nc1nc(-c2ccc(F)cc2)cs1
AC50 [10]: 10.4 µM (active) | AC50 [11]: 143 µM (active)

NS(=O)(=O)c1ccc(CCNC(=O)CCS(=O)(=O)c2ccc(Br)cc2)cc1
EC50 [12]: 5.2 µM (active) | IC50 [13]: 40.9 µM (active) | IC50 [14]: 4.17 µM (active) | IC50 [15]: > 66.6 µM (inactive) | IC50 [16]: 9.08 µM (active) | IC50 [17]: 2.23 µM (active) | IC50 [18]: > 50 µM (inactive) | EC50 [19]: 1.21 µM (active)
